Experimental data as given in patent US8580829B2 (Boehringer Ingelheim International GmbH, priority 2010, dated 2013).
pIC50: −log10 of the molar value. One block for each compound: values may come before it.

What was measured:
[1] = system: biomarkers for myocardial infarction risk; conditions: clinical trial; cited from earlier work
[2] = system: human glomerulonephritis; conditions: clinical trial; cited from earlier work
[3] = system: ApoE−/−xCD4dnTβRII mice; conditions: infusion, treated for four weeks; cited from earlier work
[4] = system: apoE/LDL-R double knockout mice; conditions: oral dosing, high-fat diet from 2 months of age to 6 months; cited from earlier work
[5] = system: synthesis of LTB4 in human whole blood; assay: human whole blood LTB4 production inhibition assay; assay type: cell-based; conditions: Homo sapiens, heparinized human whole blood, calcimycin 20 μM; read-out: hWB LTB4 IC50
Outline: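 Readout: plasma LTB4 by antibody-based HTRF. Compound added to heparinized human whole blood, 15 min 37° C; calcimycin 20 μM final (PBS pH 7.4), 30 min 37° C; spun 1500×g 5 min, plasma taken.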

[6] = biological target: T1, recombinant human FLAP protein (Homo sapiens, UniProt P20292); assay: FLAP binding assay (Scintillation Proximity Assay, displacement of [125I]L-691,831); conditions: recombinant human FLAP membranes, [125I]L-691,831 probe; read-out: FLAP SPA IC50
T1 construct: made in house; host or cells: Sf9 insect cells (100,000 x g membrane fraction)
T1 sequence (P20292 1-161): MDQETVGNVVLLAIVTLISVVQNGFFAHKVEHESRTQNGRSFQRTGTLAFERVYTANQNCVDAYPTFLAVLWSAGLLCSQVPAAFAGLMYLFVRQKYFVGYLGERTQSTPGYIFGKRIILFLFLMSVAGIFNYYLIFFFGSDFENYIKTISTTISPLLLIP
Outline: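 WGA scintillation proximity beads were stirred 1 h with 5 μg of FLAP-containing membrane protein. The membranes came from baculovirus Sf9 cells, Dounce-lysed and spun to a 100,000×g pellet in buffer at pH 7.5.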

SMILES: O=C(O)[C@@H](c1ccc(OCc2ccc3ccccc3n2)cc1)C1CCCC1 [DG-031]
effect on biomarkers for myocardial infarction risk [1]: dose-dependent suppression of several biomarkers

SMILES: CC(C)(C)Sc1c(CC(C)(C)C(=O)O)n(Cc2ccc(Cl)cc2)c2ccc(OCc3ccc4ccccc4n3)cc12 [MK-591]
effect on proteinuria [2]: reduce proteinuria

SMILES: CC(C)c1ccc2c(c1)c(SC(C)(C)C)c(CC(C)(C)C(=O)O)n2Cc1ccc(Cl)cc1 [MK-886]
decrease in plaque area in the aortic root [3]: ~40%
decrease in plaque coverage in the aorta [4]: 56%
decrease in plaque coverage in the aortic root [4]: 43%

pIC50 [5]: 6.24
pIC50 [6]: 8.26
SMILES: Cc1noc(C)c1-c1nc(C2(c3ccc(-c4cnc(N)nc4)cc3)CCC2)no1 [Example 164, 5-(4-{1-[5-(3,5-Dimethyl-isoxazol-4-yl)-1,2,4-oxadiazol-3-yl]-cyclobutyl}-phenyl)-pyrimidin-2-ylamine]

pIC50 [5]: 6.52
pIC50 [6]: 8.54
SMILES: Nc1ncc(-c2ccc(C3(c4noc(-c5cnc(N)nc5)n4)CCC3)cc2)cn1 [Example 18, 5-(4-{1-[5-(2-Amino-pyrimidine-5-yl)-1,2,4-oxadiazole-3-yl]-cyclobutyl}-phenyl)-pyrimidin-2-ylamine]
